Data published in patent publication US20110052494A1, “H-ANTIGEN BINDING POLYPEPTIDES AND METHODS OF USE” (priority 2008, published 2011).

How the values were obtained:
[1] = tested on: LLY (Streptococcus mitis SK597 lectinolysin, SEQ ID NO:1) on human donor 1 platelets; experiment: Block of the lectin-dependent enhancement of LLY pore formation (calcein release from platelets); assay type: cell-based; settings: high responder platelets pretreated
Procedure: Calcein release assay. PRP was diluted 1:100 with HEPES/saline assay buffer (2 mM CaCl2, 1 mM MgCl2, 150 mM NaCl, 10 mM HEPES, pH 7.5) and incubated with 2 μM calcein-acetoxy methyl ester (Molecular Probes, Eugene, Oreg.) for 10 minutes at room temperature as previously described (17). LLY (0.7-2.9 nM) was incubated with the calcein-loaded PRP for 10 minutes at room temperature. Samples were then diluted with HEPES/saline and analyzed on a FACSCalibur flow cytometer (Becton-Dickinson) using settings as described previously (17). Cells losing calcein fluorescence were quantified as a percentage of total platelets.
The EC50 values for LLY- and LLY^CDC-dependent calcein release were calculated using a nonlinear sigmoidal dose-response curve fit of the data (Prism Software).
We hypothesized that enhancement of LLY activity resulted from a glycan-dependent interaction of the lectin domain after monomer bound the cell surface. If correct then preincubating platelets with LLY^Lec should prevent interaction of the lectin domain of LLY with surface glycans and block the enhancement of LLY activity on the highly sensitive donor 1 platelets.

[2] = target: T1, LLY^Lec-Q190C (isolated fucolectin domain of Streptococcus mitis SK597 lectinolysin, SEQ ID NO:3, Q190C = position 154 of the domain) (Streptococcus sp. SK597, UniProt B3UZR3, Q190C); experiment: Glycan microarray binding, Alexa-488 labeled LLY^Lec; settings: for glycan microarray binding at the lowest LLY^Lec concentration: 5.6 nM LLY^Lec, determinants lacking the difucosylated structures
T1 construct: Alexa-488 maleimide on Cys-190; E. coli
Procedure: FIGS. 7A & 7B. LLY^Lec preferentially binds Le^y and Le^b glycans. Version 2.1 of the printed glycan microarray (Consortium for Functional Glycomics) was probed with Alexa-488 labeled LLY^Lec-Q190C at 560 nM, 56 nM and 5.6 nM. […] The average RFU (from 4-6 analysis with high and low values eliminated) for each bound glycan was determined as described in the Methods and the % CV (100×Standard Deviation÷Average) provides an indication of the precision of each measurement. […] AVG RFU is average relative fluorescence units; SP, spacer arm or linker between glycan and surface of the array; SP0, —CH2CH2NH2; and SP8, CH2CH2CH2NH2. Circles; galactose, squares; GalNac, triangles, fucose, squares; GlcNAc.
Chemical modification of LLY and its derivatives with sulfhydryl-specific fluorescent probes. Cysteine derivatives of LLY and LLY^Lec (i.e., the 162 amino acid fucolectin domain) were modified with Alexa Fluor 488 C5-maleimide (Invitrogen) via the sulfhydryl group as previously described (12). Modified protein stocks were adjusted to 10% (v/v) sterile glycerol, quick frozen in liquid nitrogen, and stored at −80° C. Proteins were labeled at an efficiency of 75% or greater.
Glycan microarray binding assay and scanning. Glycan microarrays were prepared as described previously (33,37) and obtained from the NIH/NIGMS-funded Consortium for Functional Glycomics (see http://www.functionalglycomics.org/static/index.shtml). Before assay, the slides were rehydrated for 5 minutes in TSM buffer (20 mM Tris-HCL, 150 mM sodium chloride (NaCl), 0.2 mM calcium chloride (CaCl2) and 0.2 mM magnesium chloride (MgCl2). Alexa-488-labeled LLY^Q190C and its derivatives were used in the binding assay (560-640 nM), and the bound proteins were detected directly via the fluorescent tag.
The slides were scanned with a Perkin Elmer ProScanarray MicroArray Scanner (Waltham, Mass.) using an excitation wavelength of 488 nm. ImaGene software (BioDiscovery, Inc., El Segundo, Calif.) was used to quantify fluorescence. The data are reported as average relative fluorescence units (RFU) from 4 of the 6 replicates (after removal of the highest and lowest values) for each glycan represented on the array. Versions 2.1 and 3.0 of the printed array were used in these studies and a complete list of glycans printed on these arrays can be found at the Functional Glycomics Gateway website:
Purified LLY^Lec-Q190C was fluorescently labeled with Alexa-488 and used to probe the glycan microarray. […] The AAA glycan binding site contains three key residues that make polar contacts with the fucose molecule. The Nε of His-52 contacts O-5 of the fucose ring whereas the guanidinium groups of Arg-79 and Arg-86 make contact with 3-OH and 4-OH ring hydroxyls of fucose (10). […]

Row | Molecule | effect of pretreatment on the high/low responder EC50 difference [1] | glycan microarray binding at the lowest LLY^Lec concentration [2] | glycan microarray ligand preference ([2]; printed glycan microarray, overall conclusion)
1 | C[C@@H]1OC(O)[C@@H](O)[C@H](O)[C@@H]1O (stereo partly drawn) [fucose, L-fucose] | This difference was abolished |  | 
2 | Fucα1-2Galβ [H-antigen] |  | binds weakly or not at all | weaker ligand
3 | GaNAclα1-3[Fucα1-2]Galβ1-3/4R [blood group A] |  | binds weakly or not at all | 
4 | Galα1-3[Fucα1-2]Galβ1-3/4R [blood group B] |  | binds weakly or not at all | 
